{
  "source": "paper PMC10920779",
  "about": "“Targeting P2Y14R protects against necroptosis of intestinal epithelial cells through PKA/CREB/RIPK1 axis in ulcerative colitis” (Nature Communications, 2024)",
  "key": {"[1]": {"tested_on": "apoptosis and pyroptosis of IECs", "assay": "Apoptosis and pyroptosis markers in IECs of DSS-treated mice (TUNEL, cleaved caspase-3, Bcl-2, Bax, GSDMD-NT, caspase-1 p20)", "assay_type": "in vivo, mouse", "set-up": "GSDMD / caspase-1 / caspase-3: scale not given here", "conditions": "for BAX/BCL / GSDMD / caspase-1 / caspase-3: replicates", "description": "Tissues and cells were lysed using RIPA lysis buffer (Beyotime Biotechnology) containing protease and phosphatase inhibitor, homogenated, and centrifuged. The protein concentration was determined by BCA protein assay (Beyotime Biotechnology). Equal concentrations of proteins were separated in a 10% SDS-PAGE and transferred to PVDF membrane. The membrane was blocked using 5% milk in TBST, probed with primary antibody, RIPK1 (17519-1-AP, Proteintech, 1:1000), MLKL (GTX107538-100, GeneTex, 1:1000), RIPK3 (17563-1-AP, Proteintech, 1:1000), p-MLKL (EPR9514, Abcam, 1:1000), PKA (bs-0520R, Bioss, 1:1000), p-PKA (#9621, Cell signaling, 1:1000), CREB (AF6188, Affinity, 1:1000), p-CREB (AF3189, Affinity, 1:1000), P2Y14R (bs-12028R, Bioss, 1:1000), GSDMD (ab209845, Abcam, 1:1000), Caspase1 p20 (bs-10442R, Bioss, 1:1000), Bcl-2 (bs-0032R, Bioss, 1:1000), Bax (AF0120, Affinity, 1:1000), Caspase-3 p-17 (Cell Signaling Technology, #9664, 1:1000), β-actin (bs-0061R, Bioss, 1:1000), GAPDH (BS-2188R, Bioss, 1:1000) and corresponding HRP-conjugated antibodies Goat Anti-Rabbit IgG H&L Antibody (bioss, Bs-0295G, 1:8000) or Goat Anti-Mouse IgG H&L Antibody (bioss, Bs-0296G, 1:8000). Densitometry was quantified using ImageJ software.\nImmunofluorescence staining was performed using paraffin-embedded tissues as mentioned before. For immunofluorescence, the paraffin slides were deparaffinized, rehydrated, blocked and treated according to a standard protocol. The expression of intestinal barrier associated tight junction protein, P2Y14R and EpCAM was evaluated by probing the tissues with primary antibody against Claudin-1 (bioss, bs-10011R, 1:300), Occludin (bioss, DF6919, 1:300), ZO-1 (Affinity, AF5145, 1:300), EpCAM (AiFang, AF04654, 1:300), Caspase-3 p-17 (Cell Signaling Technology, #9664, 1:1000) and P2Y14R (Invitrogen, PAS-103202, 1:300) overnight at 4°C followed by 1 h incubation with the corresponding secondary antibody Goat Anti-Mouse IgG H&L (Alexa Fluor® 555) (ab150114, Abcam, 1:500) or Goat Anti-Rabbit IgG H&L (Alexa Fluor® 488) (ab150077, Abcam, 1:300). All slides were incubated with DAPI (S2110, Solarbio) for 10 min to show the location of the nucleus. Images were captured with a confocal microscope (LSM 800, Zeiss).\nTUNEL staining was performed using paraffin-embedded tissues as mentioned before. The staining was performed with apoptosis kit (11684817910, Roche) to detect apoptotic cells in colon sections according to the instructions of manufacturer. After the paraffin sections conventional dewaxing to water, performed the antigen recovery with protease K working solution at 37°C for 22 min. Then incubated the sections with permeabilize working solution at room temperature for 20 min. Next, take appropriate amount of TDT enzyme, dUTP and buffer in the tunel kit according to the number of slices and tissue size and mix at 1:5:50 ratio, and used to incubate the tissues at 37°C for 1 h. Finally, the DAPI dye (S2110, Solarbio) was used to stain nucleus at room temperature for 10 min. Images were captured with NanoZoomer S60 (C13210-01, Hamamatsu)."}, "P2Y14R": {"molecular_target": "T1, P2Y14R (Homo sapiens, UniProt Q15391)", "T1 sequence (Q15391 1-338)": "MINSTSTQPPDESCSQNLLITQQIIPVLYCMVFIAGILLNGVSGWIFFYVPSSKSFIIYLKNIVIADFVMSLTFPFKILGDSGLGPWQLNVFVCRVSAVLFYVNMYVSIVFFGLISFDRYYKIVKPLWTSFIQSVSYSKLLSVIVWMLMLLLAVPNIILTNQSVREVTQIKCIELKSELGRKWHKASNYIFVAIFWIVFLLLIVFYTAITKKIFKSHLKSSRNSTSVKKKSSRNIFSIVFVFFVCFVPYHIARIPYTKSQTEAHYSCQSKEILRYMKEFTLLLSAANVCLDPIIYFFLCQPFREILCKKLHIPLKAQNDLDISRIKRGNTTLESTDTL", "assay": "cAMP production assay for P2Y14R antagonistic activity in P2Y14-HEK293 cells", "protocol": "Data points shown are the mean values of at three independent experiments, each performed in duplicate. […] The data obtained from three independent experiments and represented as mean ± SD. Statistical significance was determined by One-way ANOVA with Tukey multiple comparison test."}, "intestinal organoids": {"tested_on": "intestinal organoids", "assay": "TSZ-induced necroptosis in intestinal organoids (PI staining)", "assay_type": "cell-based, mouse", "conditions": "P2Y14Rfl/fl organoids, pre-treated with compound", "description": "Crypts were released from the murine small intestine by incubation for 30 min at 4°C in PBS containing 2 mM EDTA. Isolated crypts were counted and pelleted. […] Organoid media were changed every 3 days. […] Dead cell imaging in live organoids was performed on the fluorescence microscope (BX53, Olympus Optical), and analyzed by image j."}, "HT-29 cells": {"tested_on": "HT-29 cells", "assay": "Cytotoxicity by CCK8 analysis in HT-29 cells", "assay_type": "cell-based, human", "description": "(§1) Necroptosis was induced by pretreatment with TNF‐α (20 ng·mL^−1) plus z‐VAD‐fmk (20 μM) and Smac mimetic (BV6, 2 μM) for 8 h, then stained cells with hematoxylin/eosin. For PI/Hoechst staining, cells were stained with PI and Hoechst for 20 min, then photographed with a fluorescence microscope and at least 300 cells were counted. The ratio of PI positive cells (%) = (PI positive cells) / (Hoechst positive cells) × 100%. For cell viability assay, CCK8 was added to the well and incubated for 1 − 2 h and then OD450 was measured using a multi-mode microplate reader (Cytation5, BioTek)."}, "[2]": {"assay": "Cytotoxicity by CCK8 analysis in HT-29 cells", "assay_type": "cell-based, human", "conditions": "human, HT-29 cells, read-out: Cell viability (%)", "description": "as §1"}, "[3]": {"set-up": "method as in PMID 24138077", "conditions": "cited from earlier work"}},
  "note": "pIC50: −log10 of the molar value. Values joined by “and” are separate entries in the source; they are usually repeats but may differ in a detail not shown here. Equal entries are not always repeated.",
  "data": [
    {"smiles": "Brc1ccc(NCc2nc3ccccc3o2)cc1", "note": "[HDL-16]", "values": [
      {"measurement": "BAX/BCL", "setting": "[1]; DSS+HDL-16-H (high dose)", "value": "7.829 and 4.146 and 3.473 and 3.902 and 4.249"},
      {"measurement": "GSDMD", "setting": "[1]; DSS+HDL-16-H (high dose)", "value": "1.314 and 1.225 and 1.812 and 1.35 and 1.898"},
      {"measurement": "caspase-1", "setting": "[1]; DSS+HDL-16-H (high dose)", "value": "2.375 and 1.892 and 1.815 and 1.586 and 3.381"},
      {"measurement": "caspase-3", "setting": "[1]; DSS+HDL-16-H (high dose)", "value": "2.22 and 2.236 and 2.6476 and 2.354 and 2.345"},
      {"measurement": "BAX/BCL", "setting": "[1]; DSS+HDL-16-L (low dose)", "value": "6.676 and 3.513 and 3.416 and 6.035 and 4.817"},
      {"measurement": "GSDMD", "setting": "[1]; DSS+HDL-16-L (low dose)", "value": "1.693 and 1.518 and 1.46 and 1.354 and 1.839"},
      {"measurement": "caspase-1", "setting": "[1]; DSS+HDL-16-L (low dose)", "value": "2.037 and 2.2873 and 0.9771 and 2.5083 and 2.278"},
      {"measurement": "caspase-3", "setting": "[1]; DSS+HDL-16-L (low dose)", "value": "2.396 and 2.3353 and 3.098 and 2.578 and 2.264"},
      {"measurement": "Apoptosis and pyroptosis of IECs", "setting": "[1]; DSS-induced inflammation, TUNEL and western blot", "value": "did not influence the apoptosis and pyroptosis"},
      {"measurement": "pIC50", "setting": "P2Y14R", "value": 9.51},
      {"measurement": "Inhibition of cAMP production in P2Y14-HEK293 cells, Inhibition (%)", "setting": "P2Y14R; 10 nM, 0.01 µM", "value": "84.08% and 80.86%"},
      {"measurement": "Inhibition of cAMP production in P2Y14-HEK293 cells, Inhibition (%)", "setting": "P2Y14R; 100 nM, 0.1 µM", "value": "122.69% and 101.65% and 74.17%"},
      {"measurement": "inhibition at 0.01 µM", "setting": "P2Y14R; read-out: Inhibition of cAMP production in P2Y14-HEK293 cells, Inhibition (%), 10 nM", "value": 94, "unit": "%"},
      {"measurement": "TSZ-induced necroptosis of organoids (PI staining)", "setting": "intestinal organoids", "value": "protected P2Y14R^fl/fl organoids from TSZ-induced necroptosis"},
      {"measurement": "Cell viability (%)", "setting": "HT-29 cells; 1 nm", "value": 114, "unit": "%"},
      {"measurement": "Cell viability (%)", "setting": "HT-29 cells; 1 μm", "value": 116, "unit": "%"},
      {"measurement": "Cell viability (%)", "setting": "HT-29 cells; 10 nm", "value": "95% and 93% and 119% and 111%"},
      {"measurement": "Cell viability (%)", "setting": "HT-29 cells; 10 μm", "value": "115% and 106% and 113%"},
      {"measurement": "Cell viability (%)", "setting": "HT-29 cells; 100 nm", "value": "110% and 99%"},
      {"measurement": "Cytotoxicity in HT-29 cells", "setting": "HT-29 cells; CCK8, 12 h, under the concentration of 10 μM", "value": "almost no cytotoxicity"},
      {"measurement": "viability at 12 h, 1 nM", "setting": "[2]; 1 nm", "value": 108, "unit": "%"},
      {"measurement": "viability at 12 h, 1 µM", "setting": "[2]; 1 μm", "value": 117, "unit": "%"},
      {"measurement": "viability at 12 h, 10 µM", "setting": "[2]; 10 μm", "value": 103, "unit": "%"},
      {"measurement": "viability at 12 h, 100 nM", "setting": "[2]; 100 nm", "value": 109, "unit": "%"}
    ]},
    {"smiles": "O=C(O)c1cc(-c2ccc(C3CCNCC3)cc2)c2ccc(-c3ccc(C(F)(F)F)cc3)cc2c1", "note": "[PPTN, reference compound]", "values": [
      {"measurement": "Solubility", "setting": "[3]", "value": "poor solubility"}
    ]}
  ]
}
